Biological target: GABAA receptor complex, benzodiazepine modulatory unit (cerebral cortex membranes)
Test: In vitro inhibition of 3H-flunitrazepam (3H-FNM) binding
Design: species or system rat
Conditions: inhibition of specific binding of 3H-FNM (1 nM), cerebral cortex membranes of male Wistar rats, 40 min at 2° C.
Method: In vitro Inhibition of ^3H-flunitrazepam (^3H-FNM) Binding
The GABA recognition site and the benzodiazepine modulatory unit can selectively be labelled with ^3H-flunitrazepam.
Preparations are performed at 0-4° C. unless otherwise indicated. Cerebral cortex from male Wistar rats (150-200 g) is homogenised for 5-10 sec in 20 ml Tris-HCl (30 mM, pH 7.4) using an Ultra-Turrax homogeniser. The suspension is centrifuged at 27,000×g for 15 min and the pellet is washed three times with buffer (centrifuged at 27,000×g for 10 min). The washed pellet is homogenized in 20 ml of buffer and incubated on a water bath (37° C.) for 30 min to remove endogenous GABA and then centrifuged for 10 min at 27,000×g. The pellet is then homogenized in buffer and centrifuged for 10 min at 27,000×g. The final pellet is resuspended in 30 ml buffer and the preparation is frozen and stored at −20° C.
The membrane preparation is thawed and centrifuged at 2° C. for 10 min at 27,000×g. The pellet is washed twice with 20 ml 50 mM Tris-citrate, pH 7.1 using an Ultra-Turrax homogeniser and centrifuged for 10 min at 27,000×g. The final pellet is resuspended in 50 mM Tris-citrate, pH 7.1 (500 ml buffer per g of original tissue), and then used for binding assays. Aliquots of 0.5 ml tissue are added to 25 μl of test solution and 25 μl of ^3H-FNM (1 nM, final concentration), mixed and incubated for 40 min at 2° C. Non-specific binding is determined using Clonazepam (1 μM, final concentration). After incubation the samples are added 5 ml of ice-cold buffer and poured directly onto Whatman GF/C glass fibre filters under suction and immediately washed with 5 ml ice-cold buffer. The amount of radioactivity on the filters is determined by conventional liquid scintillation counting. Specific binding is total binding minus non-specific binding.
25-75% inhibition of specific binding must be obtained, before calculation of an IC50.
The test value will be given as IC50 (the concentration (μM) of the test substance which inhibits the specific binding of ^3H-FNM by 50%).
Co is specific binding in control assays, and
Cx is the specific binding in the test assay.
(The calculations assume normal mass-action kinetics).

| Compound | IC50 [nM] |
| --- | --- |
| COc1cc(F)ccc1-c1cccc(-n2cnc3cc(C(F)(F)F)ccc32)c1 [Compound 9a, 1-(4′-Fluoro-2′-methoxy-biphenyl-3-yl)-5-trifluoromethyl-1H-benzoimidazole] | 1.4 |
| C[C@@H](O)c1ccc2c(c1)ncn2-c1cccc(-c2cccnc2F)c1 [Compound 9aba, (R)-1-{1-[3-(2-Fluoro-pyridin-3-yl)-phenyl]-1H-benzoimidazol-5-yl}-ethanol] | 6.2 |
| CC(C)(O)c1ccc2c(c1)ncn2-c1cccc(-c2cccnc2F)c1 [Compound 9ada, 2-{1-[3-(2-Fluoro-pyridin-3-yl)-phenyl]-1H-benzoimidazol-5-yl}-propan-2-ol] | 4 |
| COc1ccccc1-c1cccc(-n2cnc3cc(-c4cc[nH]n4)ccc32)c1 [Compound 9ak, 5-(1H-3-Pyrazolyl)-1-(2′-methoxy-biphenyl-3-yl)-1H-benzoimidazole] | 21 |

More lines, now with the values ahead:

| IC50 [nM] | Compound |
| --- | --- |
| 0.65 | CC(C)(O)c1ccc2c(c1)ncn2-c1cccc(-c2ccccc2C#N)c1 [Compound 9aac, 3′-[5-(1-Hydroxy-1-methyl-ethyl)-benzoimidazol-1-yl]-biphenyl-2-carbonitrile] |
| 0.95 | N=C(NO)c1ccc2c(c1)ncn2-c1cccc(-c2ccccc2Cl)c1 [Compound 12ha, 1-(2′-Chloro-biphenyl-3-yl)-N-hydroxy-1H-benzoimidazole-5-carboxamidine] |

System: not given
Test: not given
Conditions: not given

| Compound | melting point [°C] |
| --- | --- |
| COc1cc(F)ccc1-c1cccc(-n2cnc3cc(C(F)(F)F)ccc32)c1 [Compound 9a, 1-(4′-Fluoro-2′-methoxy-biphenyl-3-yl)-5-trifluoromethyl-1H-benzoimidazole] | 95.5 |
| CC(O)c1ccc2c(c1)ncn2-c1cccc(-c2cccnc2O)c1 (stereo not shown) [Compound 16, 3-{3-[5-(1-Hydroxy-ethyl)-benzoimidazol-1-yl]-phenyl}-pyridin-2-ol] | 133 to 137 |

Now from value to compound:

| melting point [°C] | Compound |
| --- | --- |
| 220 to 223 | CC(=NO)c1ccc2c(c1)ncn2-c1cccc(-c2cccnc2O)c1 [Compound 15, 1-{1-[3-(2-Hydroxy-pyridin-3-yl)-phenyl]-1H-benzoimidazol-5-yl}-ethanone oxime] |
| 147 to 150 | CC(C)OC(=O)c1ccc2c(c1)ncn2-c1cccc(-c2cccnc2Cl)c1 [Compound 19, 1-[3-(2-Chloro-pyridin-3-yl)-phenyl]-1H-benzoimidazole-5-carboxylic acid isopropyl ester] |

— US8288418B2, “Benzimidazole derivatives and their use for modulating the GABAA receptor complex” (Neurosearch A/S, priority 2006, dated 2012)
